± gives the expanded uncertainty stated by the source.

These results are taken from the NIST ThermoML archive (doi:10.1021/je700186v).

For this data set the following is noted: Crystal; visual observation.

Consider `C1CN2CCN1CC2` [1,4-diazabicyclo[2.2.2]octane], for which the Normal melting temperature was found to be 159.30 ± 1.1 °C.
